Common to all, as to format: in vivo
Test [1] deals with db/db mice. Briefly: Blood glucose and leptin in mouse model of type II diabetes (Example 2). The conditions noted are these: single administration 0.04 g/kg per day by gavage, two weeks; for Leptin: serum, Elisa; for Blood glucose value: 1 h after last administration. An excerpt: Effects of a Limonoid Compound, Metformin or a Combination Thereof on Blood Glucose and Leptin in a Mouse Model of Type II Diabetes In the present example, db/db mice (line name BKS.Cg-Dock7^m+/+ Lepr^db/Nju) were used to perform hypoglycemic efficacy evaluation test of animals (blood glucose level and leptin). […] Conditions for experimental feeding: as type II diabetes model mice, 6-week-old SPF-grade db/db mice were purchased from the Nanjing Model Biology Institute, and subjected to experimental feeding after 7 days of preliminary feeding. […] The experimental feed was mouse growth-stable feed (GB […]), and the daily feeding and management of the animals were under the responsibility of the animal security department, which provided the animals with sufficient padding and fresh drinking water daily. Experimental grouping: male db/db mice (20±2 g) were selected, and 18 male mice in each group were tested. […] Gavage doses: obacunone at a dose of 0.04 g/kg was gavaged per day for the obacunone group, isoobacunoic acid at a dose of 0.04 g/kg was gavaged per day for the isoobacunoic acid group, obacunone 17-β-D-glucopynoside at a dose of 0.04 g/kg was gavaged per day for the obacunone 17-β-D-glucopynoside group, metformin at a dose of 0.04 g/kg was gavaged per day for the metformin group, obacunone at a dose of 0.02 g/kg and metformin at a dose of 0.02 g/kg were simultaneously gavaged per day for the obacunone/metformin combination group, isoobacunoic acid at a dose of 0.02 g/kg and metformin at a dose of 0.02 g/kg were simultaneously gavaged per day for the isoobacunoic acid/metformin combination group, obacunone 17-β-D-glucopynoside at a dose of 0.02 g/kg and metformin at a dose of 0.02 g/kg were simultaneously gavaged per day for the obacunone 17-β-D-glucopynoside/metformin combination group, the gavage volume was 10 mL/kg, and the normal group and the model group were administrated with 10 mL/kg of distilled water. […] The data were expressed as mean and standard deviation. The data before and after were analyzed by t-test, and P<0.05 was considered statistically significant.

Test [2] has as its system STZ mice. Briefly: Blood glucose in mouse pancreatic islet β-cell injury model (Example 1). The conditions noted are these: STZ ICR mice; single administration 0.02 g/kg per day by gavage, two weeks; 1 h after last administration. From the text: Effects of a Limonoid Compound, Metformin or a Combination Thereof on Blood Glucose in a Mouse Pancreatic Islet β-Cell Injury Model In this example, a mouse pancreatic islet β-cell injury model was established by modeling ICR mice with streptozotocin (STZ) (referred to the prior art literature: Li Nan et al., Protective effect of pine pollen on kidney damage in diabetic nephropathy mice, Science and Technology Review, 2014, 32 (4/5): 95-99), and used to complete the evaluation of hypoglycemic effect in animals (this model could simulate pancreatic islet β-cell damage state of type I and type II diabetics). […] Conditions of experimental feeding: ICR mice (20±2 g), aged 6 weeks, purchased from Zhejiang Academy of Medical Sciences, and subjected to experimental feeding after 7 days of preliminary feeding. […] The experimental feed was mouse growth-stable feed (GB […]), and the daily feeding and management of the animals were under the responsibility of the animal security department, which provided the animals with sufficient padding and fresh drinking water daily. Experimental grouping: 15 male mice were randomly selected as the normal control group. […] Gavage doses: the gavage dose was 0.02 g/kg per day for the limonin group, the gavage dose was 0.02 g/kg per day for the isolimonic acid group, the gavage dose was 0.02 g/kg per day for the limonin 17-β-D-glucopyranoside group, the gavage dose of metformin was 0.02 g/kg per day for the metformin group, limonin at a dose of 0.01 g/kg and metformin at a dose of 0.01 g/kg were simultaneously gavaged per day for the limonin/metformin combination group, isolimonic acid at a dose of 0.01 g/kg and metformin at a dose of 0.01 g/kg were simultaneously gavaged per day for the isolimonic acid/metformin combination group, limonin 17-β-D-glucopyranoside at a dose of 0.01 g/kg and metformin at a dose of 0.01 g/kg were simultaneously gavaged per day for the limonin 17-β-D-glucopyranoside/metformin combination group, isolimonic acid 17-β-D-glucopyranoside at a dose of 0.01 g/kg and metformin at a dose of 0.01 g/kg were simultaneously gavaged per day for the isolimonic acid 17-β-D-glucopyranoside/metformin combination group, the gavage volume was 10 mL/kg, and the normal group and the model group were administrated with 10 mL/kg of distilled water. […] SPSS 16.0 software was used for statistical analysis. The data were expressed as mean and standard deviation. The data before and after were analyzed by t-test, and P<0.05 was considered statistically significant.

For test [3], the system named is db/db mice. Briefly: Blood glucose and insulin in mouse model of type II diabetes (Example 4). The note with it: single administration 0.2 g/kg per day by gavage, two weeks; for Insulin: serum, Elisa. From the text:
Effects of a Limonoid Compound, Metformin or a Combination Thereof on Blood Glucose and Insulin in a Mouse Model of Type II Diabetes
In the present embodiment, the limonoid compound selected nomilin, deacetylnomilin, nomilin acid, deactylnomilin 17-β-D-glucopyranoside, and a nomilin single administration group, deacetylnomilin single administration group, nomilin acid single administered group, deactylnomilin 17-β-D-glucopyranoside single administration group, and combination thereof with metformin administration groups were set, respectively.
Conditions for experimental feeding: as type II diabetes model mice, 6-week-old SPF-grade db/db mice were purchased from the Nanjing Model Biology Institute, and subjected to experimental feeding after 7 days of preliminary feeding. It should be noted that the conditions for raising the mice were as follows: the temperature was 23±1° C., the humidity was 55±10%, the lights were turned on between 7 am and 7 pm (the lights were turned off at other time), and the mice were allowed to access to water and feed freely. The experimental feed was mouse growth-stable feed (GB M2118), and the daily feeding and management of the animals were under the responsibility of the animal security department, which provided the animals with sufficient padding and fresh drinking water daily.
Experimental grouping: male db/db mice (20±2 g) were selected, 18 male mice in each group were tested, and drinking bottles were sterilized weekly. The experimental groups included the normal control group (db/m, n=18), the model group (db/db, n=18), the nomilin group (db/db, n=18), the deacetylnomilin group (db/db, n=18), the nomilin acid group (db/db, n=18), the deactylnomilin 17-β-D-glucopyranoside group (db/db, n=18), the metformin group (db/db, n=18), the nomilin/metformin combination group (db/db, n=18), the deacetylnomilin/metformin combination group (db/db, n=18), the nomilin acid/metformin combination group (db/db, n=18), the deactylnomilin 17-β-D-glucopyranoside/combination group (db/db, n=18).
Gavage doses: nomilin at a dose of 0.2 g/kg was gavaged per day for the nomilin group, deacetylnomilin at a dose of 0.2 g/kg was gavaged per day for the deacetylnomilin group, nomilin acid at a dose of 0.2 g/kg was gavaged per day for the nomilin acid group, deacetylnomilin […] at a dose of 0.2 g/kg was gavaged per day for the deactylnomilin glucopyranoside group, metformin at a dose of 0.2 g/kg was gavaged per day for the metformin group, nomilin at a dose of 0.1 g/kg and metformin at a dose of 0.1 g/kg were simultaneously gavaged per day for the nomilin/metformin combination group, nomilin acid at a dose of 0.1 g/kg and metformin at a dose of 0.1 g/kg were simultaneously gavaged per day for the nomilin acid/metformin combination group, deacetylnomilin at a dose of 0.1 g/kg and metformin at a dose of 0.1 g/kg were simultaneously gavaged per day for the deacetylnomilin/metformin combination group, deactylnomilin 17-β-D-glucopyranoside at a dose of 0.1 g/kg and metformin at a dose of 0.1 g/kg were simultaneously gavaged per day for the deactylnomilin 17-β-D-glucopyranoside/metformin combination group, the gavage volume was 10 mL/kg, and the normal group and the model group were administrated with 10 mL/kg of distilled water. Two weeks later, the blood glucose values were measured by tail trimming method (Johnson's blood glucose meter) 1 h after the last administration, and serum insulin levels were measured with blood collected from orbital cavity by enzyme-linked immunosorbent assay (Elisa), and the average of each group was obtained. SPSS 16.0 software was used for statistical analysis. The data were expressed as mean and standard deviation. The data before and after were analyzed by t-test, and P<0.05 was considered statistically significant.

The subject of test [4] is ICR mice. Briefly: Body weight, triglycerides and total cholesterol in obesity mouse model (Example 6). The note with it: high-fat feed ICR mice, single administration 0.1 g/kg per day by gavage, two weeks. From the text: Effects of a Limonoid Compound, Metformin or a Combination Thereof on Body Weight, Triglycerides, and Total Cholesterol in an Obesity Mouse Model
In this example, ICR mice were used to complete the experiment for evaluation of lipid lowering and weight loss in animals (body weight, serum cholesterol, and serum triglycerides).
In this example, the limonoid compound was nomilin, and a metformin single administration group, nomilin single administration group, and metformin/nomilin combination administration groups (dose A and B groups) were set, respectively.
Conditions of experimental feeding: ICR mice, purchased from the Animal Center of Zhejiang Academy of Medical Sciences, half male and half female, body weight (20±2 g), fed with basic feed provided by the Animal Center of Zhejiang Medical Academy. It should be noted that the conditions for raising the mice were as follows: the temperature was 23±1° C., the humidity was 55±10%, the lights were turned on between 7 am and 7 pm (the lights were turned off at other time), and the mice were allowed to access to water and feed freely. The daily feeding and management of the animals were under the responsibility of the animal security department, which provided the animals with sufficient padding and fresh drinking water daily.
The ICR mice were randomly divided into the normal group and the high-fat feed group, according to body weight. The normal group was fed with ordinary feed from the beginning to the end of the experiment.
Gavage dose: nomilin at a dose of 0.1 g/kg was gavaged per day for the nomilin group, metformin at a dose of 0.1 g/kg was gavaged per day for the metformin group, nomilin at a dose of 0.05 g/kg and metformin at a dose of 0.05 g/kg were simultaneously gavaged per day for the combination dose group A, nomilin at a dose of 0.1 g/kg and metformin at a dose of 0.1 g/kg were simultaneously gavaged per day for the combination dose group B, the gavage volume was 10 mL/kg, and the normal group and the model group were administrated with 10 mL/kg of distilled water. Two weeks later, the mice were weighed, blood sampled from orbital cavity, measured to determine serum total cholesterol and triglyceride levels, and the average values of each group were obtained. SPSS 16.0 software was used for statistical analysis. The data were expressed as mean and standard deviation. The data before and after were analyzed by t-test, and P<0.05 was considered statistically significant.

As for `CC1(C)O[C@@H](CC(=O)O)[C@]2(C)[C@H]3CC[C@@]4(C)[C@H](c5ccoc5)OC(=O)[C@H]5O[C@]54[C@]3(C)C(=O)C[C@@H]12` [Isoobacunoic acid, isoobacunoic acid], in test [1], the Leptin is 27.68 ± 3.25 pg/mL and the Blood glucose value is reported as 14.66 ± 3.1 mmol/L.

On to `CC1(C)O[C@H]2CC(=O)OC[C@]23[C@H]2CC[C@@](C)([C@@H](O[C@@H]4O[C@H](CO)[C@@H](O)[C@H](O)[C@H]4O)c4ccoc4)[C@@]4(O[C@@H]4C(=O)O)[C@]2(C)C(=O)C[C@@H]13` [Limonin 17-β-D-glucopyranoside, limonin 17-β-D-glucopyranoside], for which, in test [2], the Blood glucose value was 18.9 ± 2.2 mmol/L.

For `CC1(C)O[C@H]2CC(=O)OC[C@]23[C@H]2CC[C@@]4(C)[C@H](c5ccoc5)OC(=O)[C@H]5O[C@]54[C@]2(C)C(=O)C[C@@H]13` [Limonin, limonin], the Blood glucose value in test [2] is on record as 19.5 ± 1.8 mmol/L.

`CC(=O)O[C@H]1CC(=O)OC(C)(C)[C@@H]2CC(=O)[C@]3(C)[C@H](CC[C@@]4(C)[C@H](c5ccoc5)OC(=O)[C@H]5O[C@]543)[C@@]12C` [Nomilin, nomilin]: the Insulin in test [3] was 8.82 ± 3.42 pg/mL. Besides, the “Body weight gaining rate” value in test [4] is 6.17%. Also, in test [4] (serum), the Total cholesterol was found to be 3.09 ± 0.16 mmol/L and the Triglycerides is recorded as 1.08 ± 0.33 mmol/L.

With `CC1(C)OC(=O)C=C[C@]2(C)[C@H]3CC[C@@]4(C)[C@H](c5ccoc5)OC(=O)[C@H]5O[C@]54[C@]3(C)C(=O)C[C@@H]12` [Obacunone, obacunone], in test [1], the Leptin is 25.99 ± 3.92 pg/mL and the Blood glucose value stood at 12.71 ± 2.8 mmol/L.

For `CC1(C)OC(=O)C[C@H](O)[C@]2(C)[C@H]3CC[C@@]4(C)[C@H](c5ccoc5)OC(=O)[C@H]5O[C@]54[C@]3(C)C(=O)C[C@@H]12` [deacetylnomilin], in test [3], the Insulin amounted to 8.59 ± 2.61 pg/mL.

Consider isolimonic acid, for which the Blood glucose value in test [2] turned out to be 18.2 ± 3.1 mmol/L.

Consider isolimonic acid 17-β-D-glucopyranoside, for which the Blood glucose value in test [2] is reported as 17.9 ± 2.8 mmol/L.

As to nomilin acid, in test [3] (1 h after last administration), the Blood glucose value is 11.0 ± 4.1 mmol/L.

As for obacunone 17-β-D-glucopynoside, in test [1], the Leptin is 28.55 ± 4.00 pg/mL and the Blood glucose value worked out at 13.67 ± 2.9 mmol/L.

Values taken from patent publication US11679097B2, “Combination product containing limonoid compound and biguanide compound” (ZHEJIANG YANGSHENGTANG INSTITUTE OF NATURAL MEDICATION CO., …, priority 2017, dated 2023).
